One assay concerns HBV (HepAD38 cells). Kind of assay: HBV replication assay: determination of HBV DNA from the supernatants of HepAD38 cells. The format is cell-based. As to conditions: Hepatitis B virus, 144 h, HBV DNA in HepAD38 supernatant at day 6, qPCR, read-out: Cell activity. As for the experimental part:
Determination of HBV DNA from the Supernatants of HepAD38 Cells
The anti-HBV activity was analysed in the stable transfected cell line HepAD38, which has been described to secrete high levels of HBV virion particles (Ladner et al., 1997). In brief, HepAD38 cells were cultured at 37° C. at 5% CO2 and 95% humidity in 200 μl maintenance medium, which was Dulbecco's modified Eagle's medium/Nutrient Mixture F-12 (Gibco, Karlsruhe), 10% fetal bovine serum (PAN Biotech Aidenbach) supplemented with 50 μg/ml penicillin/streptomycin (Gibco, Karlsruhe), 2 mM L-glutamine (PAN Biotech, Aidenbach), 400 μg/ml G418 (AppliChem, Darmstadt) and 0.3 μg/ml tetracycline. Cells were subcultured once a week in a 1:5 ratio, but were usually not passaged more than ten times. For the assay 60,000 cells were seeded in maintenance medium without any tetracycline into each well of a 96-well plate and treated with serial half-log dilutions of test compound. To minimize edge effects the outer 36 wells of the plate were not used but were filled with assay medium. On each assay plate six wells for the virus control (untreated HepAD38 cells) and six wells for the cell control (HepAD38 cells treated with 0.3 μg/ml tetracycline) were allocated, respectively. In addition, one plate set with reference inhibitors like BAY 41-4109, entecavir, and lamivudine instead of screening compounds were prepared in each experiment. In general, experiments were performed thrice in triplicates. At day 6 HBV DNA from 100 μl filtrated cell culture supernatant (AcroPrep Advance 96 Filter Plate, […] Supor membran, PALL GmbH, Dreieich) was automatically purified on the MagNa Pure LC instrument using the MagNA Pure 96 DNA and Viral NA Small Volume Kit (Roche Diagnostics, Mannheim) according to the instructions of the manufacturer. EC50 values were calculated from relative copy numbers of HBV DNA In brief, 5 μl of the 100 μl eluate containing HBV DNA were subjected to PCR LC480 Probes Master Kit (Roche) together with 1 μM antisense primer […], 0.5 μM sense primer […], 0.3 μM hybprobes […]-FL and LC640-[…]-PH (TIBMolBiol, Berlin) to a final volume of 12.5 μl. The PCR was performed on the Light Cycler 480 real time system (Roche Diagnostics, Mannheim) using the following protocol: Pre-incubation for 1 min at 95° C., amplification: 40 cycles×(10 sec at 95° C., 50 sec at 60° C., 1 sec at 70° C.), cooling for 10 sec at 40° C. Viral load was quantitated against known standards using HBV plasmid DNA of pCH-9/3091 (Nassal et al., 1990, Cell 63: 1357-1363) and the LightCycler 480 SW 1.5 software (Roche Diagnostics, Mannheim) and EC50 values were calculated using non-linear regression with GraphPad Prism 6 (GraphPad Software Inc., La Jolla, USA).

Assay [1] addresses T1, HBV core protein (C-terminal truncated core protein, 149 amino acids of the N-terminal assembly domain, BODIPY-FL labelled) (UniProt P03146).
T1 construct: fused on or other part: A single cysteine added after residue 149, at position 150; It carries the BODIPY-FL maleimide label
The experiment in a line: Biochemical capsid assembly assay (fluorescence quenching). The gist of the method: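 Fluorescence quenching of BODIPY-FL-labelled core dimers (1.0 to 2.0 μM) in 50 mM HEPES pH 7.5; compounds at 8 concentrations, 0.5 log-unit dilutions from top 100, 31.6 or 10 μM, 0.5% DMSO. Assembly started with NaCl to […]; fluorescence (ex 477/em 525 nm) read after 6 min. EC50 by non-linear regression.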

Setting [2] is: assembly started with NaCl, fluorescence read after 6 min, read-out: Assembly activity.
The mark [3] stands for this setting: read-out: Assembly activity, assembly started with NaCl, fluorescence read after 6 min.

pEC50, pIC50: −log10 of the molar value. Read-outs that look alike come from different tables or passages of the source. Bounds are passed on as bounds.

T1 sequence (P03146 whole entry, the tested form may be a part): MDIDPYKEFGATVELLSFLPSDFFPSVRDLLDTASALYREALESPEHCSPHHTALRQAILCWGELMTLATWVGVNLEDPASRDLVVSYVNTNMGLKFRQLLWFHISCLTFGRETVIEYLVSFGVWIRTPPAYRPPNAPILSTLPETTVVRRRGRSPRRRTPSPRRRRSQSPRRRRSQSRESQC

With `CN(C(=O)c1cnn2c1CN(C(=O)c1cc3c(F)ccc(F)c3[nH]1)CC2)C1(c2ccc(C(=O)O)cc2)CC1` [Example 76, 4-{1-[N-methyl-5-(4,7-difluoro-1H-indole-2-carbonyl)-4H,5H,6H,7H-pyrazolo[1,5-a]pyrazine-3-amido]cyclopropyl}benzoic acid], the pEC50 with HBV (HepAD38 cells) was over 6.00. Moreover, in assay [1] (setting [2]), the pIC50 is over 5.30.

Consider `CCN1C(=O)c2c3c(nn2CCC12CC2)CCN(C(=O)c1cc2ccccc2[nH]1)C3` [Example 86, 13′-ethyl-4′-(1H-indole-2-carbonyl)-4′,8′,9′,13′-tetraazaspiro[cyclopropane-1,12′-tricyclo[7.5.0.0^2,7]tetradecane]-1′,7′-dien-14′-one], for which the pEC50 in the assay on HBV (HepAD38 cells) is over 6.00. In addition, in assay [1] (setting [2]), the pIC50 was over 5.30.

For the molecule `CN(CCO)C(=O)c1noc2c1CN(C(=O)c1cc3c(F)cc(F)cc3[nH]1)CC2` [Example 23, 5-(4,6-difluoro-1H-indole-2-carbonyl)-N-(2-hydroxyethyl)-N-methyl-4H,5H,6H,7H-[1,2]oxazolo[4,5-c]pyridine-3-carboxamide], in the assay with HBV (HepAD38 cells), the pEC50 was over 6.00. In addition, the pIC50 in assay [1] (setting [2]) was over 5.30.

With `CN1C(=O)c2c3c(nn2CC12CC2)CCN(C(=O)c1cc2c(Cl)c(F)ccc2[nH]1)C3` [Example 87, 12′-(4-chloro-5-fluoro-1H-indole-2-carbonyl)-4′-methyl-4′,7′,8′,12′-tetraazaspiro[cyclopropane-1,5′-tricyclo[7.4.0.0^2,7]tridecane]-1′,8′-dien-3′-one], the pEC50 with HBV (HepAD38 cells) is over 6.00. Also, the pIC50 in assay [1] (setting [3]) is over 5.30.

Take `O=C(NC1CC1)c1noc2c1CN(C(=O)c1cc3ccccc3[nH]1)CC2` [Example 10, N-cyclopropyl-5-(1H-indole-2-carbonyl)-4H,5H,6H,7H-[1,2]oxazolo[4,5-c]pyridine-3-carboxamide]: the pEC50 with HBV (HepAD38 cells) was over 4.00. Further, in assay [1] (setting [2]), the pIC50 was over 5.30.

On to `CN(C(=O)c1cnn2c1CN(C(=O)c1cc3ccccc3[nH]1)CC2)C1(COc2ccccc2C(=O)O)CC1` [Example 61, 2-({1-[N-methyl-5-(1H-indole-2-carbonyl)-4H,5H,6H,7H-pyrazolo[1,5-a]pyrazine-3-amido]cyclopropyl}methoxy)benzoic acid], for which the pEC50 in the assay with HBV (HepAD38 cells) is 5.00 to 6.00. For the same molecule, in assay [1] (setting [2]), the pIC50 is over 5.30.

With `CN(C(=O)c1noc2c1CN(C(=O)c1cc3ccccc3[nH]1)CC2)C1(c2ccc(C(=O)O)cc2)CC1` [Example 97, 4-{1-[N-methyl-5-(1H-indole-2-carbonyl)-4H,5H,6H,7H-[1,2]oxazolo[4,5-c]pyridine-3-amido]cyclopropyl}benzoic acid], in the assay on HBV (HepAD38 cells), the pEC50 is over 6.00. For the same molecule, the pIC50 in assay [1] (setting [2]) was over 5.30.

`CN(CCO)C(=O)c1noc2c1CN(C(=O)c1cc3c(Cl)cccc3[nH]1)CC2` [Example 21, 5-(4-chloro-1H-indole-2-carbonyl)-N-(2-hydroxyethyl)-N-methyl-4H,5H,6H,7H-[1,2]oxazolo[4,5-c]pyridine-3-carboxamide]: the pEC50 in the assay with HBV (HepAD38 cells) is over 6.00. Further, the pIC50 in assay [1] (setting [2]) was over 5.30.

`C[C@@H](NC(=O)c1noc2c1CN(C(=O)c1cc3ccccc3[nH]1)CC2)C(F)(F)F` [Example 46, 5-(1H-indole-2-carbonyl)-N-[(2R)-1,1,1-trifluoropropan-2-yl]-4H,5H,6H,7H-[1,2]oxazolo[4,5-c]pyridine-3-carboxamide]: the pEC50 with HBV (HepAD38 cells) was over 6.00. Besides, the pIC50 in assay [1] (setting [3]) was over 5.30.

Turning to `O=C(c1cc2ccccc2[nH]1)N1CCc2onc(C(=O)N3CCC(O)CC34CC4)c2C1` (stereo not shown) [Example 95, 4-[5-(1H-indole-2-carbonyl)-4H,5H,6H,7H-[1,2]oxazolo[4,5-c]pyridine-3-carbonyl]-4-azaspiro[2.5]octan-7-ol], the pEC50 with HBV (HepAD38 cells) was over 6.00. Also, the pIC50 in assay [1] (setting [2]) is over 5.30.

Turning to `CN(C(=O)c1noc2c1CN(C(=O)c1cc3ccccc3[nH]1)CC2)C1(CO)CC1` [Example 8, N-[I1-(hydroxymethyl)cyclopropyl]-5-(1H-indole-2-carbonyl)-N-methyl-4H,5H,6H,7H-[1,2]oxazolo[4,5-c]pyridine-3-carboxamide], in the assay on HBV (HepAD38 cells), the pEC50 was over 6.00. In addition, in assay [1] (setting [2]), the pIC50 was over 5.30.

`C[C@@H](NC(=O)c1noc2c1CN(C(=O)c1cc3cc(F)c(Cl)cc3[nH]1)CC2)C(F)(F)F` [Example 103, 5-(6-chloro-5-fluoro-1H-indole-2-carbonyl)-N-[(2R)-1,1,1-trifluoropropan-2-yl]-4H,5H,6H,7H-[1,2]oxazolo[4,5-c]pyridine-3-carboxamide]: the pEC50 in the assay on HBV (HepAD38 cells) is over 6.00. Moreover, the pIC50 in assay [1] (setting [2]) was over 5.30.

With `CN(C(=O)c1[nH]nc2c1CN(C(=O)c1cc3c(Cl)cccc3[nH]1)CC2)C1(c2ccc(C(=O)O)cc2)CC1` [Example 49, 4-{1-[N-methyl-5-(4-chloro-1H-indole-2-carbonyl)-2H,4H,5H,6H,7H-pyrazolo[4,3-c]pyridine-3-amido]cyclopropyl}benzoic acid], in the assay with HBV (HepAD38 cells), the pEC50 was 5.00 to 6.00. In addition, the pIC50 in assay [1] (setting [2]) is over 5.30.

With `CN(C(=O)c1cnn2c1CN(C(=O)c1cc3c(Cl)cccc3[nH]1)CC2)C1(c2ccc(C(=O)O)cc2)CC1` [Example 51, 4-{1-[N-methyl-5-(4-chloro-1H-indole-2-carbonyl)-4H,5H,6H,7H-pyrazolo[1,5-a]pyrazine-3-amido]cyclopropyl}benzoic acid], the pEC50 in the assay on HBV (HepAD38 cells) is over 6.00. In addition, the pIC50 in assay [1] (setting [2]) was over 5.30.

As for `CN(C(=O)c1cnn2c1CN(C(=O)c1cc3c(F)c(F)ccc3[nH]1)CC2)C1(c2ccc(C(=O)O)cc2)CC1` [Example 52, 4-{1-[N-methyl-5-(4,5-difluoro-1H-indole-2-carbonyl)-4H,5H,6H,7H-pyrazolo[1,5-a]pyrazine-3-amido]cyclopropyl}benzoic acid], in the assay on HBV (HepAD38 cells), the pEC50 was over 6.00. Further, the pIC50 in assay [1] (setting [2]) was over 5.30.

For `CCc1cc(F)cc2[nH]c(C(=O)N3CCn4ncc(C(=O)N(C)C5(c6ccc(C(=O)O)cc6)CC5)c4C3)cc12` [Example 74, 4-{1-[N-methyl-5-(4-ethyl-6-fluoro-1H-indole-2-carbonyl)-4H,5H,6H,7H-pyrazolo[1,5-a]pyrazine-3-amido]cyclopropyl}benzoic acid], the pEC50 in the assay on HBV (HepAD38 cells) was over 6.00. In assay [1] (setting [2]), the pIC50 was over 5.30.

With `C[C@@H](NC(=O)c1onc2c1CN(C(=O)c1cc3ccccc3[nH]1)CC2)C(F)(F)F` [Example 40, 5-(1H-indole-2-carbonyl)-N-[(2R)-1,1,1-trifluoropropan-2-yl]-4H,5H,6H,7H-[1,2]oxazolo[4,3-c]pyridine-3-carboxamide], the pEC50 in the assay with HBV (HepAD38 cells) was over 6.00. In addition, in assay [1] (setting [2]), the pIC50 is over 5.30.

As for `CN(C(=O)c1cnn2c1CN(C(=O)c1cc3ccccc3[nH]1)CC2)C1(c2ccc(C(=O)O)cc2)CC1` [Example 12, 4-{1-[N-methyl-5-(1H-indole-2-carbonyl)-4H,5H,6H,7H-pyrazolo[1,5-a]pyrazine-3-amido]cyclopropyl}benzoic acid], the pEC50 with HBV (HepAD38 cells) is over 6.00. The pIC50 in assay [1] (setting [2]) is over 5.30.

As for `Cc1c(F)ccc2[nH]c(C(=O)N3CCn4ncc(C(=O)N(C)C5(c6cccc(C(=O)O)c6)CC5)c4C3)cc12` [Example 35, 3-{1-[N-methyl-5-(5-fluoro-4-methyl-1H-indole-2-carbonyl)-4H,5H,6H,7H-pyrazolo[1,5-a]pyrazine-3-amido]cyclopropyl}benzoic acid], in the assay with HBV (HepAD38 cells), the pEC50 is over 6.00. The pIC50 in assay [1] (setting [3]) is over 5.30.

Take `O=C(c1cc2ccccc2[nH]1)N1CCc2nn3c(c2C1)C(=O)N(CCOCc1ccccc1)C1(CC3)CC1` [Example 90, 13′-[2-(benzyloxy)ethyl]-4′-(1H-indole-2-carbonyl)-4′,8′,9′,13′-tetraazaspiro[cyclopropane-1,12′-tricyclo[7.5.0.0^2,7]tetradecane]-1′,7′-dien-14′-one]: the pEC50 in the assay on HBV (HepAD38 cells) is over 6.00. Also, the pIC50 in assay [1] (setting [2]) is over 5.30.

Values taken from patent US20220306647A1, “NOVEL INDOLE-2-CARBOXAMIDES ACTIVE AGAINST THE HEPATITUS B VIRUS (HBV)” (AICURIS GMBH & CO. KG, priority 2019, published 2022).
